The subject of data set [1] is Human epithelium cancer cells A431. Description: Evaluation of cell toxicity of fluorescent labeling agent (cell counting kit-8, absorbance at 450 nm). It counts as cell-based. The note with it: labeling agent left one hour, absorbance relative to DMSO medium solution regarded as one. Here is the method:
<Evaluation of Cell Toxicity of Fluorescent Labeling Agent>
Human epithelium cancer cells A431 were seeded in a 96-well plate (1×10^4 cells/well). Next, the A431 were cultured for 24 hours using an RPMI 1640 medium to which 10% fetal bovine serum (FBS) and 1% penicillin-streptomycin had been added in an incubator (37° C., 5% CO2-containing Air, humidified environment). As the RPMI 1640 medium, an RPMI-164-Medium manufactured by Sigma-Aldrich Inc. was used.
After cultivation, the medium was removed, the fluorescent labeling agents prepared in Examples 83 to 123 and Comparative Examples 25 to 37 and an RPMI 1640 medium containing 1% dimethyl sulfoxide (DMSO medium solution) were added thereto. These were left to stand in the incubator for one hour and then washed in the RPMI 1640 medium. 10 μL of a cell counting kit-8 (manufactured by Dojindo Laboratories.) was added to each well and left to stand in the incubator (37° C., 5% CO2-containing Air, humidified environment) for one hour. Next, the absorbance at 450 nm was measured using a plate reader (SPARK, manufactured by Tecan Trading AG).
The relative value of the absorbance of each fluorescent labeling agent when the absorbance of the well to which the DMSO medium solution had been added was regarded as one was calculated and evaluated based on the following standards. […] At the time of calculating the relative value of the absorbance of the fluorescent labeling agent, a value obtained by subtracting the absorbance before the addition of the cell counting kit-8 (manufactured by Dojindo Laboratories.) from the measured absorbance was used.
• P (Pass): 0.8 or more • F (Failure): Less than 0.8 <Evaluation of Fluorescence Intensity of Fluorescent Labeling Agent>
(Tetrazolium dyes change colour on reduction, which living cells bring about.)

The test system is the same in data set [2]. Description: Evaluation of fluorescence intensity of fluorescent labeling agent in labeled cells (plate reader). The data set is classed as cell-based. The note with it: one hour, FIG. 1, compared with fluorescent labeling agents 68 and 75. As to the method: Human epithelium cancer cells A431 were seeded in a 96-well plate (1×10^4 cells/well). Next, the A431 were cultured for 24 hours using an RPMI 1640 medium to which 10% fetal bovine serum (FBS) and 1% penicillin-streptomycin had been added in an incubator (37° C., 5% CO2-containing Air, humidified environment).
After cultivation, the medium was removed, and the fluorescent labeling agents prepared in Examples 127 to 167 and Comparative Examples 25 to 37 were added thereto and left to stand in the incubator for one hour. Next, these were washed in the RPMI 1640 medium. The fluorescence intensities were evaluated in fluorescence wavelength ranges shown in Table 22 using the plate reader (SPARK, manufactured by Tecan Trading AG).

Another data set deals with phospholipids. Description: Evaluation of property of fluorescent dye being accumulated in phospholipids (labeling agent intensity / dye solution intensity). It counts as cell-based, Human. The note with it: A431 cells, one hour; relative value, comparative compound 12 regarded as one; fluorescent wavelength range as in Table 22 (780-800 nm, 630-650 nm in last line). As to the method: <Evaluation of Property of Fluorescent Dye being Accumulated in Phospholipids>
The property of each dye being accumulated in phospholipids was calculated from the fluorescence intensity integral value obtained from the fluorescent spectrum of the dye solution and the fluorescence intensity obtained from the fluorescence intensity of the fluorescent labeling agent using an expression (1). The relative value of the property of each fluorescent labeling agent being accumulated in phospholipids when the property of the comparative compound 12 being accumulated in phospholipids was regarded as one was calculated and evaluated based on the following standards. In a case where the relative value is evaluated as 3 or more, it can be said that each fluorescent dye has a favorable property of being accumulated in phospholipids.
• 4: The property of being accumulated in phospholipids is 4 or more. • 3: The property of being accumulated in phospholipids is 2 or more and less than 4. • 2: The property of being accumulated in phospholipids is 1 or more and less than 2. • 1: The property of being accumulated in phospholipids is less than 1. Property of being accumulated in phospholipids=fluorescence intensity of fluorescent labeling agent/fluorescence intensity of dye solution (1)

The test system of data set [3] is Human epithelium cancer cells A431. Description: Evaluation of visibility of cell (fluorescent microscope). It counts as cell-based. On the set-up: key: P (Pass): Clear; F (Failure): Unclear. The note with it: A431 cells, labeling agent left one hour. Here is the method:
<Evaluation of Visibility of Cell>
Human epithelium cancer cells A431 were seeded in a 96-well plate (1×10^4 cells/well). The A431 were cultured for 24 hours using an RPMI 1640 medium to which 10% fetal bovine serum (FBS) and 1% penicillin-streptomycin had been added in an incubator (37° C., 5% CO2-containing Air, humidified environment).
After cultivation, the medium was removed, and the fluorescent labeling agents prepared in Examples 127 to 189 and Comparative Examples 25 to 37 were added thereto and left to stand in the incubator for one hour. Next, these were washed in the RPMI 1640 medium. The dark field images and fluorescent images of the cells were observed using a fluorescent microscope (manufactured by Keyence Corporation, BZ-X800) equipped with an excitation filter for an appropriate wavelength and a fluorescent filter and evaluated based on the following standards.
• P (Pass): Clear • F (Failure): Unclear
The evaluation results of the visibility of the cells labeled with the fluorescent labeling agents 1, 15, 19, 24, 25, 68, and 75 are sequentially shown in FIGS. 2 to 8 (magnification: 10 times, optical uptake time: 1 second).
The evaluation results of the visibility of the cells labeled with the fluorescent labeling agents 42 and 53 are sequentially shown in FIGS. 9 to 10 (magnification: 40 times, optical uptake time: 1 second).
From what has been described above, it has been clarified that the fluorescent labeling agent according to the embodiment of the present invention has excellent characteristics as a fluorescent labeling agent.

Molecules are shown by their SMILES.

With `CCOc1cccc2c1C1=NC2=Nc2c3c(OCC)cccc3c3[n]2[Al]([O][Si](C)(C)CCCN)[n]2c(c4cccc(OCC)c4c2=NC2=NC(=N3)c3c(OCC)cccc32)=N1` [Fluorescent dye 1], the Cell toxicity entry in data set [1] is reported as “P (P (Pass): 0.8 or more)”. Also, the “fluorescence intensity of fluorescent labeling agent” value in data set [2] is reported as “high fluorescence intensities”. Besides, in the data set with phospholipids, the “Property of being accumulated in phospholipids” value was 4 (4: The property of being accumulated in phospholipids is 4 or more.). The Cell visibility result in data set [3] was “P”.
The matching figures for `CCOc1cccc2c1C1=NC2=Nc2c3c(OCC)cccc3c3[n]2[Al]([O]P(=O)(CCC(=O)O)c2ccccc2)[n]2c(c4cccc(OCC)c4c2=NC2=NC(=N3)c3c(OCC)cccc32)=N1` (centres unmarked) [Fluorescent dye 15]: “P (P (Pass): 0.8 or more)”, “high fluorescence intensities”, 4 (4: The property of being accumulated in phospholipids is 4 or more.) and “P”.
For `CCCCCCCCCCCCCCCCCCc1ccc2c(c1)C1=NC2=Nc2c3cc(CCCCCCCCCCCCCCCCCC)ccc3c3[n]2[Al]([O]S(=O)(=O)c2ccc(CCNC(=O)C(CC(=O)O)OC(C)=O)cc2)[n]2c(c4ccc(CCCCCCCCCCCCCCCCCC)cc4c2=NC2=NC(=N3)c3cc(CCCCCCCCCCCCCCCCCC)ccc32)=N1` (centres unmarked) [Fluorescent dye 28], the Cell toxicity entry in data set [1] was “P (P (Pass): 0.8 or more)”. Besides, the “Property of being accumulated in phospholipids” value in the data set with phospholipids is listed as 4 (4: The property of being accumulated in phospholipids is 4 or more.). For the same compound, in data set [3], the Cell visibility result was “P”.
The matching figures for `CC(C)C(CC(=O)O)C(=O)NCCc1ccc(S(=O)(=O)[O][Al]2[n]3c4c5cc(C(C)(C)C)ccc5c3N=C3N=C(N=c5c6cc(C(C)(C)C)ccc6c([n]52)=NC2=NC(=N4)c4ccc(C(C)(C)C)cc42)c2ccc(C(C)(C)C)cc23)cc1` (centres unmarked) [Fluorescent dye 29]: “P (P (Pass): 0.8 or more)”, 4 (4: The property of being accumulated in phospholipids is 4 or more.) and “P”.
